The results in this text go back to article PMC3401038 (ACS Chemical Biology, 2012).

Molecules are shown by their SMILES.

One assay relates to M. bovis BCGMtbNar. Format: cell-based, Mycobacterium bovis BCG.
Assay [1] concerns M. tuberculosis H37Rv. The format is cell-based, Mycobacterium tuberculosis. As to conditions: hypoxic shift down M. tuberculosis H37Rv, result in words.
For assay [2], the system named is M. tuberculosis H37Rv. The format is cell-based, Mycobacterium tuberculosis. As to conditions: hypoxic shift down M. tuberculosis, 5 days treatment, result in words.

Regarding `Cc1ncc([N+](=O)[O-])n1CCO` [metronidazole], in the assay on M. bovis BCGMtbNar, the “effect on ATP pool / intracellular ATP levels” value was “not affected”.
On to `COc1nc2ccc(Br)cc2cc1[C@@H](c1ccccc1)[C@@](O)(CCN(C)C)c1cccc2ccccc12` [TMC207], for which the “effect on ATP levels” value in the assay on M. tuberculosis H37Rv [1] is listed as “reduction in ATP levels”. Besides, the “effect on ATP pool / intracellular ATP levels” value with M. bovis BCGMtbNar is on record as “significantly reduce the ATP pool”. Moreover, the “bacterial viability (CFU)” value with M. tuberculosis H37Rv [2] is “reduction in bacterial viability”.
On to `O=[N+]([O-])c1cn2c(n1)OC[C@@H](OCc1ccc(OC(F)(F)F)cc1)C2` [PA-824], for which, in the assay on M. tuberculosis H37Rv [1], the “effect on ATP levels” value was “reduction in ATP levels”. Further, the “bacterial viability (CFU)” value in the assay with M. tuberculosis H37Rv [2] is reported as “reduction in bacterial viability”.
